Where a chain is given by its changes, count along the chain named. Where two headings read alike, the source gives them in different places.
Legend:
[1] = molecular target: native olfactory CNG channels; settings: cited from earlier work
[2] = molecular target: T1, E340N mutant bovine olfactory CNG channel (Bos taurus, UniProt Q03041, E340N); format: biochemical; settings: for P max (+80 mV) / P max (−80 mV): cGMP
T1 sequence (Q03041 1-663 E340N): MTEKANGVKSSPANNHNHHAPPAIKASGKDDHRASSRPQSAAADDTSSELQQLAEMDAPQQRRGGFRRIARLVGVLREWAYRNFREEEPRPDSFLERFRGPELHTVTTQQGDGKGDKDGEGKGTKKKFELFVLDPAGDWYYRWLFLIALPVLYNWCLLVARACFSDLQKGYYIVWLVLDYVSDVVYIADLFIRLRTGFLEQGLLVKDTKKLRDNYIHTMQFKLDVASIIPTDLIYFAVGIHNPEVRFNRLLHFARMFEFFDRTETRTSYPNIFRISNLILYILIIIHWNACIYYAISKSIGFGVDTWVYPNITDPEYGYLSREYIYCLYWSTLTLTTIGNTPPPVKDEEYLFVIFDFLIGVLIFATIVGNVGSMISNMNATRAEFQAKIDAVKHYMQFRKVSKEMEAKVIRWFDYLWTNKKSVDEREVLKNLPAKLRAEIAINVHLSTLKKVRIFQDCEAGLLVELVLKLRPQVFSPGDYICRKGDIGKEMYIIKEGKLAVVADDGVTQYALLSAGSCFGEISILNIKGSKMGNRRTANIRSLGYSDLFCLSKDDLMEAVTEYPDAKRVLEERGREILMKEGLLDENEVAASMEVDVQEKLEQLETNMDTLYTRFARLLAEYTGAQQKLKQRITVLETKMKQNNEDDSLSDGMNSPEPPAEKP

[3] = molecular target: T2, wild-type bovine olfactory CNG channel (α3 subunit) (Bos taurus, UniProt Q03041); format: biochemical; settings: cGMP
T2 sequence (Q03041 1-663): T1 sequence (Q03041 1-663 E340N) with N340E

[4] = 3 μM cGMP, +80 mV, amplitude histogram, Fig. 3
[5] = 100 μM cGMP, +80 mV, amplitude histogram, Fig. 3
[6] = high level of current determined with respect to low level

P closed [2, 4] | P o,high [2, 4] | P closed [2, 5] | P o,high [2, 5] | P o,low [2, 5] | P max (+80 mV) [2, 6] | P max (−80 mV) [2, 6] | P max (+80 mV) ([2]; low level of current) | P max (−80 mV) ([2]; low level of current) | P max (+80 mV) [3] | P max (−80 mV) [3] | L, equilibrium gating constant ([3]; allosteric model fit, mean ± SD) | SMILES | Ki ([1]; read-out: K i for external Ca2+ blockage, frog, +80 mV, ref Dzeja et al. 1999) | Ki ([1]; read-out: K i for external Ca2+ blockage, frog, −70 mV, ref Dzeja et al. 1999)
 |  |  |  |  |  |  |  |  |  |  |  | [Ca+2] [Ca^2+] | ~2 mM | 0.265 mM
0.765 | 0.015 | 0.01 | 0.065 | 0.925 | 0.10 ± 0.07 | 0.04 ± 0.01 | 0.87 ± 0.02 | 0.96 ± 0.01 | 0.993 ± 0.004 | 0.996 ± 0.001 | 334 ± 82 | Nc1nc2c(ncn2[C@@H]2O[C@@H]3COP(=O)(O)O[C@H]3[C@H]2O)c(=O)[nH]1 [cGMP] |  | 

Source: paper PMC2233693 (The Journal of General Physiology, 2000)
